These antisense oligonucleotides have a phosphorothioate backbone; sugars and methylation of C are not fully specified.
Each sequence was assayed against ERBB2. Details: ASO.
Note: test concentration or dose not given here.

Sequence	remaining target (mRNA or protein) (fraction of control)
GGGTGGTATTGTTCAGCG	0.94
TTCTGCTGCCGTCGCTTG	0.75
GCTGGTTGTTCTTGTGGA	0.73
GGGAACTCAAGCAGGAAG	0.68
CCGCCACTCCTGGTAGAT	≥ 1
CACTGGTAACTGCCCTCA	0.54
CTGGTAGAGGTGGCGGAG	≥ 1
CCTGCCTCACTTGGTTGT	0.64
TGATGCCAGCAGAAGTCA	0.94
GCACTTCTCACACCGCTG	0.51
CCCTTGTAGACTGTGCCA	0.56
CCAGCAGTGAGCGGTAGA	0.41
TCGGAGCCAGCCCCTTCG	0.53
GCCAGGGCATAGTTGTCC	0.81
ACCGCAGAGATGATGGAC	0.98
CCATCAGTCTCAGAGGGC	0.3
GTGGTTGAAGTGGAGGCA	0.98
GCACCACCTGGCAGCCCT	0.73
GTTGGGCATCGCTCCGCT	0.59

Sequence	remaining target (mRNA or protein) (fraction of control)
GCAGCCGAGCCAGCCCGA	0.61
GACCATAGCACACTCGGG	0.57
CAGGAAGGACAGGCTGGC	0.94
GGTCTCGGGACTGGCAGG	0.68
CGAAGGCTGGGCTGAAGG	0.73
ACTCTGGTGGGTGAACCG	0.86
CCACAAAGACTCCCCAGT	0.44
TCAGGTTTCACACCGCTG	0.66
GGCAGTGTTGGAGGCTGG	0.57
CCGCACATCCTCCAGGTA	0.64
GACCACGACCAGCAGAAT	0.76
GTGGATGTCAGGCAGATG	0.86
GGGTGGCACGGCAAACAG	0.81
TTGACACACTGGGTGGGC	0.61
CTGGTTCACACTGGCACG	0.4
GCAGCGGGAGCCCTTACA	0.83
GCACGAAGCAGAGGTGGG	0.47
CAGGGTCAGCGAGTAGGC	0.89
CCTTTCCAGAGTGGCACC	0.75

The sequences below were run against DUSP9. Details: ASO.

Sequence	remaining target (mRNA or protein) (fraction of control)
TGGAGCTTCTGCATGAGGTA	0.75
TCCATGGGCGATCGGCTCCC	0.74
CGAGCGGCCCAGACCCTCCA	≥ 1
CCAGACCCTCCATGGGCGAT	≥ 1
CCCATGAAGTTGAAGTTGGG	0.44
ATTAGGACGGCAGCCCGCGT	≥ 1
AGAAGAGGCAGGCTCCGAGC	0.53
AGGCCCCAGCCCCGAGAGGC	0.54
GGGCCCCGCAGCAGCAAAAG	0.35
CCCAGGGCCGGGACCTGGGC	0.98
GCCACGCTCAGCGCCCCACC	0.94
